Peptide text beside a SMILES is read from it. * marks the point of attachment. Biotin = O=C1N[C@H]2[C@H](CS[C@H]2CCCCC(=O)*)N1
Tests used:
[1] = target: streptavidin (Streptomyces avidinii, UniProt P22629); details: literature reference value, Piran et al. 1990; cited from earlier work
[2] = target: T1, Bcl-xL (Homo sapiens, UniProt Q07817); experiment: Radiolabeled off-rate assay on immobilized Bcl-xL; format: binding
T1 construct: The gene for the first 209 amino acids of Bcl-xL; made in house; host or cells: E. coli BL21(DE3), pET24a vector
Excerpt: Radiolabeled Off-Rate Assay. The DNA sequences coding for the peptides were ordered from Integrated DNA Technologies (IDT). Each DNA construct contained a T7 RNA Polymerase promoter, and a 5′ deletion mutant of the Tobacco Mosaic Virus (ΔTMV). The C-terminal portion of the peptides were elongated with a flexible serine-glycine linker (six amino acids long) and an HA tag. After gel purification using urea-PAGE, the DNA sequences were PCR amplified using Taq polymerase and in vitro transcribed into mRNA using T7 RNA polymerase. After transcription, the mRNA was urea-PAGE purified and resuspended in deionized water to a final concentration of 30 μM.
The samples were in vitro translated at 30° C. for 1 hour in the translation solution—150 mM KOAc, 750 μM MgCl2, 2 μM mRNA, 1× translation mix (20 mM Hepes-KOH pH 7.6, 100 mM creatine phosphate, 2 mM DTT, and 312.5 μM of each amino acid excluding methionine), ^35S-labeled methionine (Perkin Elmer; 20 μCi for each 25 μL of translation), and 60% (v/v) rabbit reticulocyte lysate. Radiolabeled peptides were purified using magnetic HA beads (Life Technologies) and eluted with 100 μL, 50 mM NaOH, then immediately neutralized with 20 μL of 1 M Tris-HCl, pH 8.0.
The radiolabeled peptides were allowed to bind to 30 pmol immobilized Bcl-xL for 1 hour in sample buffer (1×PBS, 1% (w/v) BSA, 0.1% (v/v) Tween 20, 10 μM biotin). The beads were magnetically separated, and washed 5× with sample buffer. The beads were resuspended in 1 mL of sample buffer containing 3 μM non-biotinylated Bcl-xL (˜100× molar excess relative to immobilized biotinylated Bcl-xL). At various time points, 100 μL of slurry was removed and the beads were magnetically separated and washed. The percent remaining at each time point was determined by dividing the counts per minute (cpm) on beads by total cpm (beads+washes). The peptide off-rate was determined by an exponential fit of the Percent counts on beads vs. Time (s).
The peptide ligands were made using a C-terminal HA tag, and affinity purified.

[3] = target: T1, Bcl-xL; experiment: High-throughput sequencing kinetic (HTSK) on- and off-rates of mRNA-peptide fusions; format: binding
Protocol: Preparing the pools of fusion ligands. The DNAs for the final enriched pools from the extension and the doped selection against Bcl-xL were generated. The DNA pools were PCR amplified using Taq polymerase and in vitro transcribed into mRNA using T7 RNA polymerase (Liu et al., Methods Enzymol. 318, 268-293 (2000)). After transcription, the mRNA was urea-PAGE purified and resuspended in deionized water to a final concentration of 30 μM. The mRNA was then ligated to fluorescein-F30P (phosphate-dA21-[dT-fluor]-[C9]3-dAdCdCP; where [dT-fluor] is fluorescein dT (Glen Research), [C9] is spacer 9 (Glen Research), and P is puromycin (Glen Research); synthesized at the Keck Oligo Facility at Yale) using T4 DNA ligase (Takahashi et al., Methods Mol. Biol. 535, 293-314 (2009)). The ligation was performed using a splint complementary to the 3′ end of the RNA and the 5′ end of the DNA-linker. The ligated mRNA was urea-PAGE purified and resuspended in deionized water to final concentration of 30 μM. The samples were in vitro translated in the translation solution-150 mM KOAc, 750 μM MgCl2, 2 μM mRNA, in 1× translation mix (20 mM Hepes-KOH pH 7.6, 100 mM creatine phosphate, 2 mM DTT, and 312.5 μM of each amino acid) and 60% (v/v) rabbit reticulocyte lysate. To prepare radiolabeled peptides or proteins, non-labeled methionine was substituted with ^35S-labeled methionine (Perkin Elmer; 20 μCi for each 25 μL of translation). The translation reactions were incubated at 30° C. for one hour. To form mRNA-protein fusions, KCl and MgCl2 were added to the reaction to final concentrations of 250 mM and 30 mM respectively after translation, and the samples were frozen at −20° C.
To purify the fusion molecules, 100 μL of dT cellulose (25% (v/v) slurry, GE Healthcare) in isolation buffer (100 mM Tris-HCl pH 8.0, 1 M NaCl, 0.2% (v/v) Triton X-100) was added and incubated for 1 hour. The beads were washed five times with 700 μL of isolation buffer, and the fusions were eluted with 3×80 μL of 65° C. water and desalted through Centrisep columns (Princeton Separations). The desalted fusions were adjusted to 1×RT buffer (50 mM Tris-HCl pH 8.3, 75 mM KCl, 3 mM MgCl2, […], […],) and the sample was heated to 65° C. for 5 minutes and cooled on ice to anneal the 3′ primer. After cooling, […] of Superscript II enzyme was added and the reaction incubated at 42° C. for one hour. […]
On- and off-rate experiments. […] The radiolabeled samples were washed 3×, and the beads were counted via a scintillation counter.
To obtain the HTSK off-rates, after the kinetic on-rate experiment, the remaining beads were washed 5× with selection buffer. […] The radiolabeled samples were washed and counted via a scintillation counter. […]

[4] = target: T1, Bcl-xL; experiment: Equilibrium immunoassays (ELISA and AMMP data combined), Kd of ligands for Bcl-xL; format: binding
Protocol: Sample Preparation. A set of serially diluted Bcl-xL standards, at 2× the desired concentration, were made in sample buffer. For each ligand to be tested (such as peptide ligands), a set of dilutions at 2× the desired concentration was also prepared. The Bcl-xL samples were either mixed 1:1 with sample buffer (standards) or ligands (samples), and allowed to incubate at room temperature for 6 days. After the incubation, the standards and samples were analyzed using ELISA or the ViBE BioAnalyzer (FIG. 1).
ELISA Assays. ELISA plates were incubated overnight at 4° C. with 1.5 nmol of streptavidin (for D1 or Bcl-xL capture ligands) or 54H6 mAb in 1×PBS. Plates were washed 3× with wash buffer (1×PBS+0.1% (v/v) Tween-20) and blocked with 1×PBS+5% (w/v) BSA for two hours. For the D1 or Bcl-xL capture ligands, 100 μL of a 30 nM solution of the reagents was added to wells and incubated for 1 hour. This step was skipped for the 54H6 mAb capture ligand (already immobilized on the plate). After the capture ligand incubation, 100 μL of sample or standards were added in each well, and incubated for 1 hour at room temperature. Plates were washed, incubated with HRP-conjugated probe antibody (such as anti-HIS tag antibody) in sample buffer for 1 hour, washed, and incubated with TMB substrate (Thermo Scientific). Reactions were stopped after approximately 10 minutes with 2 M sulfuric acid, and the absorbance at 450 nm was measured via a plate reader (Molecular Devices). The ligand of interest, capture ligand, target protein, and probe ligand used in example ELISA assays performed are highlighted in the table below.
AMMP Assays. For the AMMP assays, 90 μL of each sample or standards was incubated with 30 μL of magnetic beads (12 μg of beads/mL) and fluorescein-labeled antibody (8 nM) in sample buffer for 1 hour. The experiment's run buffer was 1×PBS+1% (v/v) Tween-20+1% (v/v) heat-treated FBS (Invitrogen; FBS was heat treated for 15 minutes at 65° C. and filtered). BioScale Universal Detection Cartridges were used in performing all of the assays. The device was used per the manufacturer's instructions. The ligand of interest, capture ligand, target protein, and probe ligand used in example AMMP assays performed are highlighted in the table below.
Monovalent and Divalent Analysis. The data for both sets of target concentrations were simultaneously fit for Kd (in the Kd only fit) or Kd and Mo. The data was fitted to the equilibrium model using the lowest absolute deviation method, by varying either only Kd or both Kd and [L]0 simultaneously. The monovalent assay fitting was done by Excel Solver (GRG Non-Lin method) using a set of five initial values. The set of values which provided the lowest error after the fitting were chosen as the final values. For the divalent assays, the fitting was performed by MATLAB's fminsearch function and a set of 10 initial values for Kd1, Kd2, and [L]0. […] For the divalent reverse assay, an extra parameter, Cf, was also determined by fitting (FIG. 7 Reverse Assay).
Enzymatic Kd Calculation Assay. The Kd values of ligands of interest were determined using a protocol modified from Friguet et al., Journal of immunological methods, 77, 305-319 (1985). The samples were prepared and analyzed by ELISA assay in a similar process as described above. The OD450 for the standards and their concentration values were fit to a four parameter logistic curve (standard curve). The concentration of the free Bcl-xL in solution (responsible for the signal) for each sample was calculated using the standard curve, and converted into percent of Bcl-xL bound by ligand in solution.

T1 sequence (Q07817 1-209 limits assumed): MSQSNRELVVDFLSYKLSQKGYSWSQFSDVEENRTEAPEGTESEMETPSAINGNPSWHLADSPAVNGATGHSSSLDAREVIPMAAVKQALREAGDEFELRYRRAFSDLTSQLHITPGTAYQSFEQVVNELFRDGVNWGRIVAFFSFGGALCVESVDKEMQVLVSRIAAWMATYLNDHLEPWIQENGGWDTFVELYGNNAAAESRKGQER
streptavidin, sequence (P22629 25-183, species assumed): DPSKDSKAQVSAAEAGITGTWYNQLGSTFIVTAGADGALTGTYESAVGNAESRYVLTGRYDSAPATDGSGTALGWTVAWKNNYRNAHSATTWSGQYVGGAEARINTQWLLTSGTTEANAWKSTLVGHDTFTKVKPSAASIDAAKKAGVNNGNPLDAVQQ

O=C(O)CCCC[C@@H]1SC[C@@H]2NC(=O)N[C@@H]21 [biotin]
slowest reported off-rate of biotin and streptavidin [1]: 2.4×10^−6

MIDTNVILNYKKAADHFSITMGSK [D79]
Peptide koff ([2]; in vitro translated radiolabeled peptides with C-terminal HA tag): 5.9e-07 s⁻¹ | koff value ([2]; radiolabeled peptide, unit not given): 5.9×10^−7 | Kd ([3]; from HTSK on- and off-rates): 2.4 pM | HTSK koff ([3]; mRNA-peptide fusions, next-generation sequencing): 3.3e-07 s⁻¹

CC[C@H](C)[C@H](NC(=O)[C@@H](NC(=O)[C@@H](NC(=O)[C@@H](NC(=O)[C@H](CCC(=O)O)NC(=O)[C@@H](NC(=O)[C@@H](N)CCSC)[C@@H](C)CC)[C@@H](C)O)[C@@H](C)CC)[C@@H](C)O)C(=O)N[C@@H](Cc1ccc(O)cc1)C(=O)N[C@@H](CCCCN)C(=O)N[C@@H](Cc1ccc(O)cc1)C(=O)N[C@@H](CCCCN)C(=O)N[C@@H](CCCCN)C(=O)N[C@@H](C)C(=O)N[C@@H](C)C(=O)N[C@@H](CC(=O)O)C(=O)N[C@@H](Cc1c[nH]cn1)C(=O)N[C@@H](Cc1ccccc1)C(=O)N[C@@H](CO)C(=O)N[C@@H](CCSC)C(=O)N[C@@H](CO)C(=O)N[C@@H](CCSC)C(=O)NCC(=O)N[C@@H](CO)C(=O)N[C@@H](CCCCNC(=O)CCCC[C@@H]1SC[C@@H]2NC(=O)N[C@@H]21)C(N)=O [E2] (H-MIETITIYKYKKAADHFSMSMGSK(Biotin)-NH2)
koff ([2]; radiolabeled peptide-mRNA fusions bound to immobilized Bcl-xL, read-out: koff): 1.6e-05 s⁻¹ | kon [4]: 53000 M⁻¹ s⁻¹ | Kd ([4]; Kd, equilibrium ELISA/AMMP assays (Table 1 values)): 0.3 nM | Ratio of Fit [L]0 to Known [L]0 ([4]; simultaneous fit of Kd and [L]0, mean ± standard error): 96% ± 40%

Reference: patent publication US20180172683A1, “METHODS FOR ANALYZING THE INTERACTION BETWEEN A TARGET PROTEIN AND A LIGAND” (UNIVERSITY OF SOUTHERN CALIFORNIA, priority 2015, published 2018)
